# EP4700096A1, “INK COMPOSITION FOR INK-JET PRINTING” (Sakata INX Corporation, priority 2023, dated 2024)
# Test: SP value (solubility parameter) calculated by Formula 1
# Assay type: physicochemical
# Conditions: 25°C (298 K), calculated by Formula 1 from latent heat of vaporization, molecular weight, density
# Source text: The SP value refers to the solubility parameter, and the SP value of the water-soluble organic solvent (B) can be determined by formula 1 below. SP value(unit:((cal/cm^3))^(1/2)) = ({(ΔH−RT)/(M/D)})^(1/2) [formula]
row,SP value (25°C),SMILES
1,12.6 (cal/cm^3)^1/2,"CC(O)CO (stereo not drawn) [1,2-propanediol]"
2,9.0 (cal/cm^3)^1/2,CC(O)COC(C)COC(C)CO (stereo not drawn) [Tripropylene glycol]
3,14.9 (cal/cm^3)^1/2,OCC(O)CO [glycerin]
